Laboratory results published in patent US11271238B2, “Applications of low-cost, thermal and electrochemically stable organic compounds as high performance redox active materials in redox flow batteries” (Utah State University, priority 2018, dated 2022).
Where two headings read alike, the source gives them in different places.

Experiments:
[1] = Aqueous solubility; type: physicochemical
[2] = cited from earlier work
[3] = Oxygen sensitivity of the reduced state (bubbling with air for 10 minutes); type: physicochemical
[4] = Cyclic voltammetry in 0.5 M NaCl; type: physicochemical
Description: Cyclic voltammetry was further used to characterize [(NPr)2TTz]Cl4.r All cyclic voltammetry experiments were conducted in an N2 purged 0.5 M NaCl aqueous solution with a Gamry 1000E potentiostat. A 3 mm PEEK encased glassy carbon disk was used as the working electrode. The working electrode was polished with 0.05 micron Al2O3 powder and rinsed with deionized H2O. A glassy carbon rod was used as the counter electrode. A silver wire coated with AgCl and suspended in 3.0 M KCl electrolyte was used as the reference electrode. The two redox peaks of [(NPr)2TTz]Cl4 were distinguished by peak fitting of its CV curve in the Origin program after removing background current.

[5] = Linear sweep voltammetry with rotating disk electrode (Levich plot); type: physicochemical; settings: 1.0 mM in 0.5 M NaCl, Levich equation
Description: Linear sweep voltammetry (LSV) experiments were conducted using a Gamry 1000E potentiostat with a three-electrode system. A 5 mm diameter rotating glassy carbon disk encased in Teflon served as the working electrode. A glassy carbon rod was used as the counter electrode. An Ag/AgCl wire served as the reference electrode. The working electrode was cleaned using the same method as in the CV experiments. During the experiments, the working electrode rotated from 300 rpm to 2400 rpm at increments of 300 rpm. Three scans at each rotation rate were collected to ensure accuracy. LSV scans were conducted at a rate of 5 mV/s from 0.2 V to 0.8 V versus NHE.

[6] = Electron transfer rate constant by Nicholson's method; type: physicochemical
Description: The electron transfer rate constants (k^0) for the electron transfers of [([…]]^3+ were estimated. Following the well-known Nicholson's method (R. S. Nicholson, Anal. Chem. 1965, 37, 1351-1355.), a solution containing 4.0 mM [(NPr)2TTz]Cl4 with 0.5 M NaCl was used to record CV curves (FIG. 6A and FIG. 6B). The peak-to-peak separation (reduction and oxidation peak potential gap), ΔEp, was obtained and used to calculate the kinetic parameter, Ψ, using Equation 2. And then, k^0 was calculated from equation 3 based on the relationship between Ψ and ν^-1/2. Ψ=(-0.6288+0.0021ΔEp)/(1-0.017ΔEp) (Equation 2) Ψ=k^0[πDnF/RT]^-1/2ν^-1/2 (Equation 3) where F, D, and n are defined in Equation 1, R=8.314, and ν represents the scan rate.

[7] = 500 mV/s scan rate, 4.0 mM in 0.5 M NaCl

## C[n+]1ccc(-c2nc3sc(-c4cc[n+](C)cc4)nc3s2)cc1.[Cl-].[Cl-] [(Me2TTz)Cl2, N,N′-dimethyl 2,5-bis(4-pyridinium)thiazolo[5,4-d]thiazole Dichloride]
[1]; in water
  water solubility: < 10 mm

## C[n+]1ccc(-c2cc[n+](C)cc2)cc1 [Methyl viologen]
[2]; MV^+ and MV^0
  air sensitivity of reduced states: highly air sensitive
[2]; aqueous solution
  solubility of charge-neutral state in aqueous solution: insolubility

## C[N+](C)(C)CCCN1C=CC(=c2nc3sc(=C4C=CN(CCC[N+](C)(C)C)C=C4)nc3s2)C=C1.[Cl-].[Cl-] [[(NPr)2TTz]Cl2, 3,3′-(thiazolo[5,4-d]thiazole-2,5-diylidenebis(pyridin-1(4H)-yl-4(4H)-ylidene))bis(N,N,N-trimethylpropan-1-aminium) Dichloride]
[3]
  oxygen sensitivity of the two-electron reduced state: no change in color

## C[N+](C)(C)CCC[n+]1ccc(-c2nc3sc(-c4cc[n+](CCC[N+](C)(C)C)cc4)nc3s2)cc1.[Cl-].[Cl-].[Cl-].[Cl-] [[(NPr)2TTz]Cl4, 4,4′-(thiazolo[5,4-d]thiazole-2,5-diyl)bis(1-(3-(trimethylammonio)propyl)pyridin-1-ium) tetrachloride]
[1]; 2.0 m NaCl aqueous solution, saline or isotonic, in 2.0 m NaCl, read-out: solubility in 2.0 m NaCl
  solubility: 1100 mM
[1]; in 2.0 m NaCl
  charge capacity corresponding to solubility: 60.0 Ah L^−1
[1]; in H2O
  charge capacity corresponding to solubility: 69.7 Ah L^−1
[1]; water, in H2O, read-out: solubility in water
  solubility: 1300 mM
[4]; 4.0 mM in 0.5 M NaCl
  E1/2 of 1st electron reduction ([(NPr)2TTz]^4+/3+): −0.38 V vs. NHE
  E1/2 of 2nd electron reduction ([(NPr)2TTz]^3+/2+): −0.50 V vs. NHE
[4]; neutral NaCl solution
  average redox potential of the two single-electron reductions: -0.44 V
[5]
  average diffusion coefficient (D) for [(NPr)2TTz]^4+ and [(NPr)2TTz]^3+: 3.15×10^−6 cm^2 s^−1
[6]; [7]
  peak-to-peak separation ΔEp, 1st electron reduction: 53 mV
  peak-to-peak separation ΔEp, 2nd electron reduction: 58 mV
[6]; lower limit, Ψ=20, 500 mV/s
  electron transfer rate constant k^0, both single-electron reductions: greater than 0.28 cm/s

## N, N, N, 2, 2, 6, 6-Heptamethylpiperidinyloxy-4-ammonium Chloride [N^Me-TEMPO, reference compound]
[4]; neutral NaCl solution
  single-electron oxidation potential: +1.0 V (vs. NHE)
